Measured values published in EP1790655B1, “Biologically active peptides” (CMS Peptides Patent Holding Company Limited, priority 2001, dated 2003).

What was measured:
[1] = system: S180 sarcoma cells; experiment: growth of transplanted S180 sarcoma in mice; format: in vivo, BALB/c mice; details: 20mg/kg i.p. once per day from the day after transplanting
Method: (§1) Intraperitoneal injection, once per day. […] Treatment of all groups with testing substance lasted for 30 days or until the animal died unless otherwise specified.
The mice were killed by cervical vertebra dislocation. Vigorously growing and non-disrupted tumor masses were harvested and washed clean with sterile saline. The tissue was dispersed in saline to a homogenous cell suspension, in a ratio of 1 g tissue to 4 ml saline. […] Administration of test substance treatment started as described in section Method 1.
After the phagocytosis index study, the mice were killed by cervical vertebra dislocation. The liver, spleen, and cancer tissue were dissected, blotted dry, and weighed.

[2] = system: L1210 leukemia; experiment: survival of mice with transplanted L1210 leukemia; format: in vivo, DBA/2 mice; details: 20mg/kg i.p. once per day from the day after transplanting, Kaplan-meier mean
Text: as §1
The mice were then killed by cervical vertebra dislocation and their ascitic fluid collected aseptically. […] Treatment started in the testing animals as described in section Method 1. Mean survival day was obtained by the Kaplan-meier method in the Survival option of the SPSS software. If the animal survived longer than the experiment, the survival days was entered as the duration of the experiment.

[3] = system: ascitic fluid type liver cancer H22; experiment: survival of mice with transplanted ascitic fluid type liver cancer H22; format: in vivo, BALB/c mice; details: 20mg/kg i.p. once per day from the day after transplanting, Kaplan-meier mean
Method: Intraperitoneal injection, once per day. […] The cyclophosphamide groups were treated on the next day after transplanting the cancer cells. Treatment of all groups with testing substance lasted for 30 days or until the animal died unless otherwise specified.
Stock H22 cells were incubated in DMEM/F12 medium supplemented with 10% fetal bovine serum, 37°C/5%CO2 for 72 hrs, then washed 3-4 times with Hank's solution at room temperature. Adjust cell concentration to 1-2 x 10^9 per litre with Hank's solution. 0.2ml of the cell suspension was implanted to the abdominal cavity of several BALB/c mice for 6-8 days. The mice were killed by cervical vertebra dislocation. Ascitic fluid of the mice was collected asceptically and the cell concentration adjusted to 1 x 10^6 per ml with Hank's solution. 0.2ml of the cell suspension was implanted into the abdominal cavity of healthy mice to generate the H22 carrying mouse model for ascitic fluid type liver cancer. Administration of test substance started as described in section Method 1. Survival data of the mice was recorded. If the animal survived longer than the experiment, the survival days was recorded as the duration of the experiment. […] The survival index was calculated according to the following formula: Survival index = (mean survival days of treatment group-mean survival days of control group)ömean survival days of control group x 100% [formula]

[4] = system: Masugi nephritis rat model; experiment: Masugi nephritis rat model; format: in vivo, Sprague Dawley (SD) rats; details: peptides 50µg/kg/day
Text: The anti-serum was then exuded and isolated.
Whole blood was collected from 15 healthy SD rats.
3. […] Treatment started on the day of induction.
4. […] Adequate drinking water was supplied.

| Structure (SMILES) | Tumor weight [1] [g] | Survival days [2] [days] | Survival days [3] [days] | spleen index (mean spleen weight / mean body weight) ([4]; after three weeks of treatment, hydrocortisone 3.3mg/kg/day (halved after first week) i.p.) | growth rate ([4]; nephritis rats, hydrocortisone 3.3mg/kg/day i.p.) |
| --- | --- | --- | --- | --- | --- |
| O=P1(N(CCCl)CCCl)NCCCO1 (centres unmarked) [Cyclo-phos phamide, Cyclophosphamide] | 0.68 ± 0.32 | 24.0 ± 5.3 | 24.7 ± 10.2 | – | – |
| C[C@]12CCC(=O)C=C1CC[C@@H]1[C@@H]2[C@@H](O)C[C@@]2(C)[C@H]1CC[C@]2(O)C(=O)CO [hydrocortisone, Hydrocortisone] | – | – | – | 4.5±1.4 x10-3 | slower growth rate than normal |
